Data reported in the supplement of paper PMC10307832.

What was measured:
Test in all cases: relative viability (nuclei count vs DMSO), 5 days (fraction); higher = more cells survive
[1] = tested on: LCLC-103H
Summary of the method: (§1)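 Lung cancer cell lines in 1536-well plates were dosed by pin tool the day after seeding, either with one drug alone or with a fixed anchor-drug dose plus five library-drug doses (not always all listed) in √10 steps. After 5 days, cells were fixed and their nuclei stained in one step (final 0.05% Triton X-100, 1% formaldehyde, 1 ug/ml Hoechst), then counted on 4× images. Relative viability is the nuclei count in treated wells divided by that in vehicle wells. Values are medians of duplicate plates.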

[2] = tested on: COR-L 105
Summary of the method: as §1

[3] = tested on: NCI-H522
Summary of the method: as §1

[4] = tested on: NCI-H1915
Summary of the method: as §1

[5] = tested on: H3255
Summary of the method: as §1

[6] = tested on: NCI-H2087
Summary of the method: as §1

[7] = tested on: NCI-H520
Summary of the method: as §1

[8] = tested on: NCI-H2170
Summary of the method: as §1

[9] = tested on: A-427
Summary of the method: as §1

[10] = tested on: SK-MES-1
Summary of the method: as §1

[11] = tested on: SW 1573
Summary of the method: as §1

[12] = tested on: HCC-827
Summary of the method: as §1

SMILES: Cc1csc(=NC2CCCCC2)n1/N=C/c1ccc(O)c(O)c1O [MIM1] + CC(=O)c1c(C)c2cnc(Nc3ccc(N4CCNCC4)cn3)nc2n(C2CCCC2)c1=O [Palbociclib] (partner 0.5 µM)
- relative viability ([1]; first compound 0.2 µM): 0.465
- relative viability ([1]; first compound 0.6325 µM): 0.528
- relative viability ([1]; first compound 2 µM): 0.477
- relative viability ([1]; first compound 6.325 µM): 0.482
- relative viability ([1]; first compound 20 µM): 0.389
- relative viability ([2]; first compound 0.2 µM): 0.472
- relative viability ([2]; first compound 0.6325 µM): 0.435
- relative viability ([2]; first compound 2 µM): 0.396
- relative viability ([2]; first compound 6.325 µM): 0.396
- relative viability ([2]; first compound 20 µM): 0.323
- relative viability ([3]; first compound 0.2 µM): 0.819
- relative viability ([3]; first compound 0.6325 µM): 0.921
- relative viability ([3]; first compound 2 µM): 0.932
- relative viability ([3]; first compound 6.325 µM): 1.13
- relative viability ([3]; first compound 20 µM): 0.61
- relative viability ([4]; first compound 0.2 µM): 0.527
- relative viability ([4]; first compound 0.6325 µM): 0.529
- relative viability ([4]; first compound 2 µM): 0.497
- relative viability ([4]; first compound 6.325 µM): 0.395
- relative viability ([4]; first compound 20 µM): 0.181
- relative viability ([5]; first compound 0.2 µM): 0.308
- relative viability ([5]; first compound 0.6325 µM): 0.326
- relative viability ([5]; first compound 2 µM): 0.31
- relative viability ([5]; first compound 6.325 µM): 0.326
- relative viability ([5]; first compound 20 µM): 0.243
- relative viability ([6]; first compound 0.2 µM): 0.228
- relative viability ([6]; first compound 0.6325 µM): 0.269
- relative viability ([6]; first compound 2 µM): 0.24
- relative viability ([6]; first compound 6.325 µM): 0.226
- relative viability ([6]; first compound 20 µM): 0.206
- relative viability ([7]; first compound 0.2 µM): 0.195
- relative viability ([7]; first compound 0.6325 µM): 0.239
- relative viability ([7]; first compound 2 µM): 0.201
- relative viability ([7]; first compound 6.325 µM): 0.22
- relative viability ([7]; first compound 20 µM): 0.183
- relative viability ([8]; first compound 0.2 µM): 0.38
- relative viability ([8]; first compound 0.6325 µM): 0.398
- relative viability ([8]; first compound 2 µM): 0.373
- relative viability ([8]; first compound 6.325 µM): 0.227
- relative viability ([8]; first compound 20 µM): 0.142
- relative viability ([9]; first compound 0.2 µM): 0.523
- relative viability ([9]; first compound 0.6325 µM): 0.471
- relative viability ([9]; first compound 2 µM): 0.545
- relative viability ([9]; first compound 6.325 µM): 0.473
- relative viability ([9]; first compound 20 µM): 0.337
- relative viability ([10]; first compound 0.2 µM): 0.286
- relative viability ([10]; first compound 0.6325 µM): 0.327
- relative viability ([10]; first compound 2 µM): 0.282
- relative viability ([10]; first compound 6.325 µM): 0.259
- relative viability ([10]; first compound 20 µM): 0.174
- relative viability ([11]; first compound 0.2 µM): 0.412
- relative viability ([11]; first compound 0.6325 µM): 0.501
- relative viability ([11]; first compound 2 µM): 0.365
- relative viability ([11]; first compound 6.325 µM): 0.325
- relative viability ([11]; first compound 20 µM): 0.148
- relative viability ([12]; first compound 0.2 µM): 0.443
- relative viability ([12]; first compound 0.6325 µM): 0.511
